Values after ≈ are worked out from the molar mass of the structure shown. Where two headings read alike, the source gives them in different places.
How the values were obtained:
Type in all cases: cell-based
[1] = system: Pseudomonas aeruginosa G236; assay: In vitro MIC, agar dilution, Pseudomonas aeruginosa G236; conditions: read-out: Minimal Inhibitory Concentration
Method: (§1) The in vitro activity of representative compounds of the present invention are given in the following Table I in terms of minimal inhibitory concentration. The test used was the standard agar dilution test using a Steers multiple inocula replicator and incubating at 35° C. for 18 hours in conventional nutrient agar.

[2] = system: Pseudomonas aeruginosa PD05141; assay: In vitro MIC, agar dilution, Pseudomonas aeruginosa PD05141; conditions: Pseudomonas aeruginosa PD05141; agar dilution, 35° C., 18 hours, nutrient agar; read-out: Minimal Inhibitory Concentration
Method: as §1

[3] = system: Pseudomonas aeruginosa 12-4-4; assay: In vitro MIC, agar dilution, Pseudomonas aeruginosa 12-4-4; conditions: 1244; Pseudomonas aeruginosa 12-4-4; agar dilution, 35° C., 18 hours, nutrient agar; read-out: Minimal Inhibitory Concentration
Method: as §1

[4] = system: Pseudomonas aeruginosa UCS 76-13; assay: In vitro MIC, agar dilution, Pseudomonas aeruginosa UCS 76-13; conditions: UCS7613; Pseudomonas aeruginosa UCS 76-13; agar dilution, 35° C., 18 hours, nutrient agar; read-out: Minimal Inhibitory Concentration
Method: as §1

[5] = system: Klebsiella pneumoniae MA75-1; assay: In vitro MIC, agar dilution, Klebsiella pneumoniae MA75-1; conditions: MA751; Klebsiella pneumoniae MA75-1; agar dilution, 35° C., 18 hours, nutrient agar; read-out: Minimal Inhibitory Concentration
Method: as §1

[6] = system: Klebsiella pneumoniae W75-2; assay: In vitro MIC, agar dilution, Klebsiella pneumoniae W75-2; conditions: W752; Klebsiella pneumoniae W75-2; agar dilution, 35° C., 18 hours, nutrient agar; read-out: Minimal Inhibitory Concentration
Method: as §1

[7] = system: Klebsiella pneumoniae W75-4; assay: In vitro MIC, agar dilution, Klebsiella pneumoniae W75-4; conditions: W754; Klebsiella pneumoniae W75-4; agar dilution, 35° C., 18 hours, nutrient agar; read-out: Minimal Inhibitory Concentration
Method: as §1

[8] = system: Klebsiella pneumoniae UR76-1; assay: In vitro MIC, agar dilution, Klebsiella pneumoniae UR76-1; conditions: UR761; Klebsiella pneumoniae UR76-1; agar dilution, 35° C., 18 hours, nutrient agar; read-out: Minimal Inhibitory Concentration
Method: as §1

Klebsiella pneumoniae AD = assay: In vitro MIC, agar dilution, Klebsiella pneumoniae AD; conditions: Klebsiella pneumoniae AD; agar dilution, 35° C., 18 hours, nutrient agar; read-out: Minimal Inhibitory Concentration
Method: as §1

[9] = system: Enterobacter aerogenes UR76-3; assay: In vitro MIC, agar dilution, Enterobacter aerogenes UR76-3; conditions: Klebsiella aerogenes, UR763; Enterobacter aerogenes UR76-3; agar dilution, 35° C., 18 hours, nutrient agar; read-out: Minimal Inhibitory Concentration
Method: as §1

[10] = system: Enterobacter cloacae MA75-1; assay: In vitro MIC, agar dilution, Enterobacter cloacae MA75-1; conditions: MA751; Enterobacter cloacae MA75-1; agar dilution, 35° C., 18 hours, nutrient agar; read-out: Minimal Inhibitory Concentration
Method: as §1

[11] = system: Enterobacter cloacae OSU75-2; assay: In vitro MIC, agar dilution, Enterobacter cloacae OSU75-2; conditions: OSU752; Enterobacter cloacae OSU75-2; agar dilution, 35° C., 18 hours, nutrient agar; read-out: Minimal Inhibitory Concentration
Method: as §1

Serratia K101 = assay: In vitro MIC, agar dilution, Serratia K101; conditions: Serratia K101; agar dilution, 35° C., 18 hours, nutrient agar; read-out: Minimal Inhibitory Concentration
Method: as §1

Serratia marcens K77-1 = assay: In vitro MIC, agar dilution, Serratia marcens K77-1; conditions: K771; Serratia marcens K77-1; agar dilution, 35° C., 18 hours, nutrient agar; read-out: Minimal Inhibitory Concentration
Method: as §1

Serratia marcens QHC77-2 = assay: In vitro MIC, agar dilution, Serratia marcens QHC77-2; conditions: QHC772; Serratia marcens QHC77-2; agar dilution, 35° C., 18 hours, nutrient agar; read-out: Minimal Inhibitory Concentration
Method: as §1

Proteus morganii K72 = assay: In vitro MIC, agar dilution, Proteus morganii K72; conditions: Morganella morganii; Proteus morganii K72; agar dilution, 35° C., 18 hours, nutrient agar; read-out: Minimal Inhibitory Concentration
Method: as §1

Proteus rettgeri N76-1 = assay: In vitro MIC, agar dilution, Proteus rettgeri N76-1; conditions: Providencia rettgeri, N761; Proteus rettgeri N76-1; agar dilution, 35° C., 18 hours, nutrient agar; read-out: Minimal Inhibitory Concentration
Method: as §1

[12] = system: Escherichia coli ESS22-31; assay: In vitro MIC, agar dilution, Escherichia coli ESS22-31; conditions: read-out: Minimal Inhibitory Concentration
Method: as §1

Escherichia coli W75-1 = assay: In vitro MIC, agar dilution, Escherichia coli W75-1; conditions: W751, 35° C., 18 hours, nutrient agar, read-out: Minimal Inhibitory Concentration
Method: as §1

Escherichia coli OSU75-1 = assay: In vitro MIC, agar dilution, Escherichia coli OSU75-1; conditions: OSU751, 35° C., 18 hours, nutrient agar, read-out: Minimal Inhibitory Concentration
Method: as §1

Escherichia coli 311 = assay: In vitro MIC, agar dilution, Escherichia coli 311; conditions: 35° C., 18 hours, nutrient agar, read-out: Minimal Inhibitory Concentration
Method: as §1

[13] = system: Staphylococcus aureus Q74-1; assay: In vitro MIC, agar dilution, Staphylococcus aureus Q74-1; conditions: Q741; Staphylococcus aureus Q74-1; agar dilution, 35° C., 18 hours, nutrient agar; read-out: Minimal Inhibitory Concentration
Method: as §1

[14] = system: Staphylococcus aureus Q74-6; assay: In vitro MIC, agar dilution, Staphylococcus aureus Q74-6; conditions: Q746; Staphylococcus aureus Q74-6; agar dilution, 35° C., 18 hours, nutrient agar; read-out: Minimal Inhibitory Concentration
Method: as §1

Enterococcus SM77-15 = assay: In vitro MIC, agar dilution, Enterococcus SM77-15; conditions: SM7715; Enterococcus SM77-15; agar dilution, 35° C., 18 hours, nutrient agar; read-out: Minimal Inhibitory Concentration
Method: as §1

Proteus vulgaris N74-1 = assay: In vitro MIC, agar dilution, Proteus vulgaris N74-1; conditions: N741, 35° C., 18 hours, nutrient agar, read-out: Minimal Inhibitory Concentration
Method: as §1

SMILES | MIC [2] | MIC [3] | MIC [4] | MIC [5] | MIC [6] | MIC [7] | MIC [8] | MIC (Klebsiella pneumoniae AD) | MIC [9] | MIC [10] | MIC [11] | MIC (Serratia K101) | MIC (Serratia marcens K77-1) | MIC (Serratia marcens QHC77-2) | MIC (Proteus morganii K72) | MIC (Proteus rettgeri N76-1) | MIC (Escherichia coli W75-1) | MIC (Escherichia coli OSU75-1) | MIC (Escherichia coli 311) | MIC [13] | further results
Nn1c(SCC2=C(C(=O)O)N3C(=O)C(NC(=O)Cc4cccs4)[C@H]3SC2)nnc1-n1cccn1 (stereo partly shown) [Compound IV, 7[2-(2-Thienyl)acetamido]-3-[4-amino-5-(1-pyrazolyl)-1,2,4-triazol-3-ylthiomethyl]-3-cephem-4-carboxylic acid] | > 128 µg/mL | > 128 µg/mL | > 128 µg/mL | 2 µg/mL (≈ 3.86 µM) | 2 µg/mL (≈ 3.86 µM) | 16 µg/mL (≈ 30.9 µM) | > 128 µg/mL | 4 µg/mL (≈ 7.71 µM) | 1 µg/mL (≈ 1.93 µM) | > 128 µg/mL | > 128 µg/mL | > 128 µg/mL | > 128 µg/mL | > 128 µg/mL | > 128 µg/mL | > 128 µg/mL | 8 µg/mL (≈ 15.4 µM) | 4 µg/mL (≈ 7.71 µM) | 4 µg/mL (≈ 7.71 µM) | ≤ 0.12 µg/mL | MIC ([1]; Pseudomonas aeruginosa, G236, 18 h): > 128 µg/mL; MIC ([12]; ESS2231, Escherichia coli ESS22-31, agar dilution, 35° C., 18 hours, nutrient agar): ≤ 0.06 µg/mL; MIC [14]: 0.25 µg/mL (≈ 0.482 µM); MIC (Enterococcus SM77-15): 32 µg/mL (≈ 61.7 µM)
N[C@@H](C(=O)NC1C(=O)N2C(C(=O)O)=C(CSc3n[nH]c(-n4cccn4)n3)CS[C@H]12)c1ccccc1.O=C(O)C(F)(F)F (stereo partly drawn) [Compound IX, 7-(D-2-Amino-2-phenylacetamido)-3-[5-(1-pyrazolyl)-1,2,4-triazol-3-ylthiomethyl]-3-cephem-4-carboxylic acid, trifluoroacetate salt] | > 128 µg/mL | > 128 µg/mL | > 128 µg/mL | 16 µg/mL | 32 µg/mL | 32 µg/mL | > 128 µg/mL | 8 µg/mL | 16 µg/mL | > 128 µg/mL | > 128 µg/mL | > 128 µg/mL | > 128 µg/mL | > 128 µg/mL | > 128 µg/mL | > 128 µg/mL | 16 µg/mL | 16 µg/mL | 16 µg/mL | 4 µg/mL | MIC ([1]; Pseudomonas aeruginosa G236, agar dilution, 35° C., 18 hours, nutrient agar): > 128 µg/mL; MIC (Proteus vulgaris N74-1): > 128 µg/mL; MIC ([12]; Escherichia coli, ESS2231, 18 h): ≤ 0.12 µg/mL; MIC [14]: 1 µg/mL; MIC (Enterococcus SM77-15): > 128 µg/mL
